The record followed here is publication PMC9458935, “Modulation of type 1 cannabinoid receptor activity by cannabinoid by-products from Cannabis sativa and non-cannabis phytomolecules” (Frontiers in Pharmacology, 2022).

The test system of assay [1] is male C57BL/6 mice. Nature of the assay: Body temperature, rectal thermometer. It counts as in vivo, mouse. Particulars: 15 min post-injection; for body temperature: 10 mg/kg i.p., male mice; for effect on ∆9-THC-dependent change of body temperature: 10 mg/kg phytomolecule + 10 mg/kg ∆9-THC i.p. As for the experimental part: (§1) Male C57BL/6 mice between 8 and 12 weeks of age were used for these studies. Animals were group housed at the Laboratory Animal Services Unit (LASU) at the University of Saskatchewan (3 animals/cage) with a standard 12:12 light-dark cycle, ad libitum access to food and water, and environmental enrichment. Compounds were prepared in the vehicle [ethanol and cremophor in saline (1:1:8)] and administered intraperitoneally (i.p.). Catalepsy was assessed in the bar holding assay 5 min after compound administration with animals placed so that their forepaws clasped a 0.7-cm ring clamp 4.5 cm above the surface of the testing space ([Garai et al., 2020]). The length of time the ring was held was recorded up to 60 s (i.e., percent maximum possible effect [MPE] 60 s) with the trial ending if the mouse turned its head or body or made three consecutive escape attempts. Body temperature was measured 15 min after compound administration by using a rectal thermometer. Anti-nociceptive effects were measured in warm water (52 ± 2°C) using the tail-flick test 20 min after compound administration to a maximum of 20 s (i.e., percent maximum possible effect [MPE] 20 s). Compounds were administered at the doses indicated. Experimenters were blinded to treatment for all behavioral assessments and analyses. Animals were purchased, rather than bred, to reduce animal numbers. In all cases, experiments were performed with the approval of the University Animal Care Committee (UACC) at the University of Saskatchewan and in keeping with the guidelines of the Canadian Council on Animal Care (CCAC).

Assay [2] addresses T1, hCB1R (Homo sapiens, UniProt P21554). Nature of the assay: cell-based. It counts as cell-based.
Assay [3] has as its target T1, hCB1R. As to the kind of experiment: cell-based. It counts as cell-based. The source holds these as a separate data set.
For assay [4], the system named is male C57BL/6 mice. As to the kind of experiment: Catalepsy, bar holding assay. It counts as in vivo, mouse. Particulars: 5 min post-injection; for catalepsy: 10 mg/kg i.p., male mice; for effect on ∆9-THC-dependent catalepsy: 10 mg/kg phytomolecule + 10 mg/kg ∆9-THC i.p. Here is the method:
as §1

Assay [5] has as its system male C57BL/6 mice. Nature of the assay: Anti-nociception, warm water tail-flick test. Particulars: 20 min post-injection; for anti-nociceptive effect, tail-flick: 10 mg/kg i.p., male mice; for effect on ∆9-THC-dependent anti-nociception, tail-flick: 10 mg/kg phytomolecule + 10 mg/kg ∆9-THC i.p. It counts as in vivo, mouse. As for the experimental part:
as §1

Assay [6] concerns the target T1, hCB1R. As to the kind of experiment: biochemical. It counts as binding.
Where [7] appears, read: CHO-K1, read-out: βarrestin2 recruitment Emax.
The mark [8] stands for this setting: CHO-K1, read-out: cAMP inhibition Emax.
The mark [9] stands for this setting: CHO-K1; read-out: βarrestin2 recruitment Emax.
[10] abbreviates: compound alone; 90 min; value with 95% CI; read-out: βarrestin2 recruitment EC50.
The mark [11] stands for this setting: CHO-K1; read-out: cAMP inhibition Emax.
The mark [12] stands for this setting: co-treatment with 100 nM ∆9-THC.
Setting [13] is: compound alone; 10 µM forskolin, 90 min; value with 95% CI; read-out: cAMP inhibition EC50.

Where two headings read alike, the source gives them in different places.

T1 sequence (P21554 whole entry): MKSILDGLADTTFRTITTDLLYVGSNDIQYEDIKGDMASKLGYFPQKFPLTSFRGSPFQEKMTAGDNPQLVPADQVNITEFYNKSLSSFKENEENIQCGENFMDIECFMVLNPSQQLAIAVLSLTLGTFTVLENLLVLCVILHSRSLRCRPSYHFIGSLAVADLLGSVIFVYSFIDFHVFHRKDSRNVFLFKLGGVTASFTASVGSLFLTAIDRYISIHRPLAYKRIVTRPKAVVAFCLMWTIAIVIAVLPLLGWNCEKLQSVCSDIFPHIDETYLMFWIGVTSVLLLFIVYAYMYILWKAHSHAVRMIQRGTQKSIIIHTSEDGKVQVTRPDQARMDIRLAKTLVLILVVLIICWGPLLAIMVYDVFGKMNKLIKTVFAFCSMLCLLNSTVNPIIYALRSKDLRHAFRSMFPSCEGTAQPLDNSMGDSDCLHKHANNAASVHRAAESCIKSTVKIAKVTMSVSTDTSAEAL

Take `CCCCCc1cc(O)c2c(c1)OC(C)(C)[C@@H]1CCC(CO)=C[C@@H]21` [11-OH-∆^9-THC]: the body temperature result in assay [1] is listed as “greater hypothermia”. In addition, in assay [2], the concentration giving a half-maximal response (EC50) is above 10 µM and the “effect on βarrestin2 recruitment by 100 nM ∆9-THC” value was “elevated βarrestin2 recruitment above the activity of 100 nM ∆^9-THC”. Moreover, the Emax in assay [2] (setting [7]) was 47 ± 9.4%. Besides, in assay [3], it took 0.011 µM to reach a half-maximal effect (EC50) and the “effect on cAMP inhibition by 100 nM ∆9-THC” value (shortened to “effect on cAMP inhibition”) is “inhibited the activity of 100 nM ∆^9-THC in a concentration-dependent manner”. Besides, in assay [3] (setting [8]), the maximum response (Emax) stood at 28 ± 3.9%. In assay [4], the catalepsy entry was “equal catalepsy”. The “anti-nociceptive effect, tail-flick” value in assay [5] was “greater hypothermia and anti-nociceptive responses relative to ∆^9-THC”. For the same molecule, in assay [6], the “[3H]CP55,940 Emin” value was determined as 70 ± 1.7 %.
As to `CCCCCc1cc(O)c2c(c1)OC(C)(C)c1ccc(C)cc1-2` [CBN, cannabinol], the body temperature result in assay [1] is given as “did not produce catalepsy or reduce body temperature”. This molecule yielded an EC50 in assay [2] above 10 µM. Moreover, in assay [2] (setting [7]), the Emax was determined as 6.9 ± 0.96%. In assay [3], the EC50 was 0.049 µM, the “effect on cAMP inhibition” value is on record as “neither ∆^8-THC nor CBN produced a significant change in cAMP inhibition” and the “fold less potent than CP55,940 in cAMP inhibition” value was around 49 x. For the same molecule, the maximal response (Emax) in assay [3] (setting [8]) was 64 ± 4.6%. Moreover, the catalepsy result in assay [4] is on record as “did not produce catalepsy”. Besides, in assay [5], the “anti-nociceptive effect, tail-flick” value is listed as “did not produce such effect”. Moreover, in assay [6], the Ki is 0.14 µM and the “[3H]CP55,940 Emin” value came out at 71 ± 3.1 %.
`CCCCCCC(C)(C)c1ccc(C2CC(O)CCC2CCCO)c(O)c1` (centres unmarked) [CP55,940, reference compound]: the maximal effect (Emax) was determined as 100 ± 3.3% in assay [2] (setting [7]) and 100 ± 6.2% in assay [3] (setting [8]). Also, the “[3H]CP55,940 Emin” value in assay [6] came out at 1.0 ± 4.7%.
For `COc1cc(/C=C/C(=O)CC(=O)/C=C/c2ccc(O)c(OC)c2)ccc1O` [Curcumin, curcumin], the “effect on ∆9-THC-dependent change of body temperature” value (shortened to “effect on ∆9-THC-dependent change”) in assay [1] was “capable of blocking ∆^9-THC’s effects on catalepsy and body temperature”. The Emax in assay [2] (setting [9]) is 8.9 ± 2.2%. The EC50 in assay [2] (setting [10]) is above 10 µM. Further, the maximal response (Emax) in assay [3] (setting [11]) was 6.2 ± 0.76%. In addition, the “effect on cAMP inhibition” value in assay [3] (setting [12]) is on record as “inhibited the activity of 100 nM ∆^9-THC in a concentration-dependent manner”. Moreover, the 50% effective concentration (EC50) in assay [3] (setting [13]) is above 10 µM. For the same molecule, the “effect on ∆9-THC-dependent catalepsy” value in assay [4] is “capable of blocking ∆^9-THC’s effects on catalepsy”. In addition, the “effect on ∆9-THC-dependent anti-nociception, tail-flick” value in assay [5] was “blocked ∆^9-THC’s effect in the nociception test”. In assay [6], the inhibition constant Ki is above 10 µM, the “[3H]CP55,940 Emin” value is on record as 100 ± 2.0 % and the “effect on [3H]CP55,940 displacement by 100 nM ∆9-THC” value (shortened to “effect on [3H]CP55,940 displacement”) was “did not significantly alter [^3H]CP55,940 displacement”.
As to `O=C(O[C@@H]1Cc2c(O)cc(O)cc2O[C@@H]1c1cc(O)c(O)c(O)c1)c1cc(O)c(O)c(O)c1` [Egc G, epigallocatechin gallate], the Emax in assay [2] (setting [9]) came to 7.2 ± 0.85%. Besides, the EC50 in assay [2] (setting [10]) is above 10 µM. For the same molecule, in assay [3] (setting [11]), the Emax is 5.6 ± 0.52%. In assay [3] (setting [12]), the “effect on cAMP inhibition” value is reported as “inhibited the activity of 100 nM ∆^9-THC in a concentration-dependent manner”. Besides, the EC50 in assay [3] (setting [13]) was above 10 µM. Also, in assay [6], the inhibition constant (Ki) was above 10 µM, the “[3H]CP55,940 Emin” value was 95 ± 3.4 % and the “effect on [3H]CP55,940 displacement” value was “augmented the displacement of [^3H]CP55,940 from hCB1R by ∆^9-THC”.
On to `CCCCCc1cc(O)cc(O)c1` [Olivetol, olivetol], for which the maximal response (Emax) in assay [2] (setting [9]) is 8.3 ± 2.1%. For the same molecule, the EC50 in assay [2] (setting [10]) is above 10 µM. In assay [3] (setting [11]), the maximal response (Emax) is 5.6 ± 1.6%. Further, the “effect on cAMP inhibition” value in assay [3] (setting [12]) was “did not change the cAMP inhibitory effects of 100 nM ∆^9-THC”. Moreover, in assay [3] (setting [13]), the EC50 is above 10 µM. Further, in assay [6], affinity was put at a Ki of 0.017 µM, the “[3H]CP55,940 Emin” value stood at 57 ± 5.5 % and the “effect on [3H]CP55,940 displacement” value is “did not significantly alter [^3H]CP55,940 displacement”.
As for `CCCCCCCCCCCCCCCC(=O)NCCO` [PEA, palmitoylethanolamide], the “effect on ∆9-THC-dependent change” value in assay [1] is “capable of blocking ∆^9-THC’s effects on catalepsy and body temperature”. Further, in assay [2], the “concentration at which CB1R- and ∆9-THC-dependent βarrestin2 recruitment was augmented” value is listed as “approximately 1 μM”; the “effect on βarrestin2 recruitment by 100 nM ∆9-THC” value is recorded as “slightly increased βarrestin2 recruitment”. Moreover, the maximal response (Emax) in assay [2] (setting [7]) stood at 5.6 ± 3.3%. Besides, in assay [3], the “concentration at which CB1R- and ∆9-THC-dependent inhibition of cAMP was augmented” value is on record as “approximately 1 μM”; the “effect on cAMP inhibition” value is listed as “augmented the activity of 100 nM ∆^9-THC in a concentration-dependent manner”; the “type of agonism in cAMP inhibition” value was “weak partial agonist inhibition of cAMP accumulation”. In addition, in assay [3] (setting [8]), the Emax was 26 ± 1.8%. Further, the “effect on ∆9-THC-dependent catalepsy” value in assay [4] is “capable of blocking ∆^9-THC’s effects on catalepsy”. Further, the “effect on ∆9-THC-dependent anti-nociception, tail-flick” value in assay [5] is recorded as “did not block the effect”. Also, in assay [6], the inhibition constant (Ki) is above 10 µM, the “[3H]CP55,940 Emin” value was 46 ± 5.3 %, the “concentration at which [3H]CP55,940 binding was reduced” value is “exceeding 1 μM” and the “effect on [3H]CP55,940 displacement” value was “did not significantly alter [^3H]CP55,940 displacement”.
The molecule `O=C(/C=C/C=C/c1ccc2c(c1)OCO2)N1CCCCC1` [Piperine, piperine] had a half-maximal effective concentration (EC50) in assay [2] above 10 µM. For the same molecule, the maximal response (Emax) in assay [2] (setting [9]) stood at 7.9 ± 0.97%. The same molecule displayed an EC50 in assay [3] above 10 µM. For the same molecule, the Emax in assay [3] (setting [11]) was found to be 5.5 ± 0.63%. In assay [3] (setting [12]), the “effect on cAMP inhibition” value is “did not change the cAMP inhibitory effects of 100 nM ∆^9-THC”. In assay [6], the inhibition constant Ki was above 10 µM, the “[3H]CP55,940 Emin” value is on record as 37 ± 2.8 % and the “effect on [3H]CP55,940 displacement” value is “did not significantly alter [^3H]CP55,940 displacement”.
`O=c1c(O)c(-c2ccc(O)c(O)c2)oc2cc(O)cc(O)c12` [Quercetin, quercetin]: in assay [1], the “effect on ∆9-THC-dependent change” value was “capable of blocking ∆^9-THC’s effects on catalepsy and body temperature”. Moreover, the “effect on ∆9-THC-dependent catalepsy” value in assay [4] is given as “capable of blocking ∆^9-THC’s effects on catalepsy”. The “effect on ∆9-THC-dependent anti-nociception, tail-flick” value in assay [5] is listed as “blocked ∆^9-THC’s effect in the nociception test”.
Take `CCCCCc1cc(O)c2c(c1)OC(C)(C)C1=C2CC(C)CC1` (centres unmarked) [∆^6a,10a-THC]: the body temperature entry in assay [1] is listed as “did not produce catalepsy or reduce body temperature”. Also, in assay [4], the catalepsy result is on record as “did not produce catalepsy”. Further, in assay [5], the “anti-nociceptive effect, tail-flick” value is “did not produce such effect”.
Take `CCCCCc1cc(O)c2c(c1)OC(C)(C)[C@@H]1CC=C(C)C[C@@H]21` [∆^8-THC]: the body temperature entry in assay [1] was “did not produce catalepsy or reduce body temperature”. Moreover, the Emax amounted to 21 ± 1.8% in assay [2] (setting [7]) and 56 ± 9.6% in assay [3] (setting [8]). Further, the “effect on cAMP inhibition” value in assay [3] is given as “neither ∆^8-THC nor CBN produced a significant change in cAMP inhibition”. Further, the catalepsy result in assay [4] is “did not produce catalepsy”. Besides, the “anti-nociceptive effect, tail-flick” value in assay [5] is given as “produced an anti-nociceptive effect that was not different from ∆^9-THC”. In assay [6], the “[3H]CP55,940 Emin” value was found to be 30 ± 5.0 %.

A word on the EC50: it is the concentration at which the effect is half-maximal. One may read the Emax as the size of the effect at its maximum, as opposed to the concentration needed. The Ki is a dissociation constant, usually derived from enzyme kinetics or from competition with a known ligand. A high value points to a looser hold on the target.
